Several values for one entry are separate records, joined by “and”; a condition that tells them apart may be missing. Equal values may be shown once.
Experiments:
[1] = Excretion of administered dose in rat urine and feces; format: in vivo, male Sprague-Dawley rats; conditions: IV; 24 h after [14C]Compound 1
[2] = Metabolite profile in rat feces; format: in vivo, male Sprague-Dawley rats; conditions: for Percent of Dose, Feces 0-24 h: after [14C]Compound 1; for % AD / % HPLC (percent of HPLC peak area in the sample extract) / fecal component, % of the administered dose (% AD): 24 h collection; for % of the total fecal excretion / fecal component, % of the administered dose (% AD): rat feces
Method: Pooled samples were prepared for the 24 h time interval from Groups 1C and 2C by combining a fixed percentage of the total weight of each individual animal sample homogenate for each group. The aliquots were pooled in a 15-mL polypropylene centrifuge tube. To the pooled sample (approximately 3 g each), 4.5 mL of MeOH-water (70:30) was added. The sample was vortexed for one minute, sonicated for 10 minutes, and then centrifuged at 5700×g for 10 minutes. The supernatant was transferred to a tube and the total volume of the supernatant was measured. The extraction procedure was repeated two additional times. The radioactivity in each extract was determined by LSC of duplicate aliquots (20 μL each) for extraction recovery. A portion (10% of total volume) of each extract was pooled for analysis by LSC and HPLC. The combined extracts were diluted (1:4) with aqueous mobile phase and analyzed using HPLC method 1 to obtain the metabolic profile. For comparing the in vitro with the in vivo metabolism data, these same fecal samples were analyzed by HPLC method 2.
(§1) Percent of the administered dose (% AD) for parent drug and each metabolite at each collection period=(% of the total radioactivity in the sample attributed to the metabolite)*(total radioactivity expressed as % of the administered dose, recovered during the corresponding collection period).
The samples were analyzed by HPLC with radiochemical detection. The distribution of metabolites as % of the administered dose was derived from these analyses. Both pooled fecal extracts were also analyzed by HPLC method 2. Metabolites R^1, R^2, R^3, R^4, R^5, R^6, R^7 and R^8 were characterized based on retention time.

[3] = Excretion of administered dose in rat urine and feces; format: in vivo, male Sprague-Dawley rats; conditions: for Percent of Dose, Total (urine, feces and liver): Oral, 24 h after [14C]Compound 1
Method: Isotopically diluted [^14C]-Compound 1 was administered intravenously to male Sprague-Dawley rats at 50 mg/kg or by oral gavage at 100 mg/kg.
as §1
The urine and feces of each animal were analyzed for radiolabel content.

[4] = test system: primary hepatocytes (human, monkey, rat); assay: Primary hepatocytes, statements pooled over human, monkey and rat; format: in vitro ADME
Method: Primary hepatocytes: Freshly isolated cells from animal and human liver were obtained in suspension on ice. Cells were pelleted by centrifugation at 70-75×g (rat) or 95-90×g (monkey and human) and resuspended at 0.8 million cells per mL of platting medium (William's E supplemented with 5% FBS, 0.5% penicillin-streptomycin, 1% L-glutamine, 4 μg/mL insulin and 1 μM dexamethasone). Multi-well collagen I-coated plates (rat tail collagen type I; 12- or 6-well) were then seeded by addition of 1 mL (12-well; 0.8 million cells/well) or 2 mL (6-well; 1.6 million cells/well) of cell suspension. […]
Cellular extracts were prepared by centrifugation at 16,000 RCF using an Eppendorf microcentrifuge (Eppendorf, Model 5415D) for 10 min to remove cellular debris. An aliquot of 5-10 μL of the supernatant was added to 5 mL of EcoLite™ (MP, Irvine, Calif.) liquid scintillation cocktail and radioactivity measured by liquid scintillation counting (LSC) using a Beckman Coulter LS6500 multipurpose liquid scintillation counter (Beckman Instruments, Fullerton, Calif.). […] Prior to HPLC analysis (described below), radioactivity of the concentrated extracts was measured by LSC using 5 μL aliquots. Extraction recovery was then determined by comparing total radioactivity in extracts before and after drying. […] Samples with poor recovery (<85%) were re-analyzed when possible. […]

[5] = group 1C (IV) pooled fecal extract
[6] = group 2C (PO) pooled fecal extract
[7] = rat, Group 1A: IV 50 mg/kg, termination 2 h
[8] = rat, Group 1B: IV 50 mg/kg, termination 6 h
[9] = rat, Group 1C: IV 50 mg/kg, termination 24 h
[10] = rat, Group 2A: PO 100 mg/kg, termination 2 h
[11] = rat, Group 2B: PO 100 mg/kg, termination 6 h
[12] = rat, Group 2C: PO 100 mg/kg, termination 24 h

Percent of Dose, Total (urine, feces and liver) [1] | Percent of Dose, Total (urine, feces and liver) [3] | SMILES | Total excretion (% AD), feces ([2]; IV (1C)) [% AD] | Percent of Dose, Feces 0-24 h ([2]; IV) | Percent of Dose, Feces 0-24 h ([2]; Oral) | Total excretion (% AD), feces ([2]; PO (2C)) [% AD] | % AD [2, 5] [% AD] | % HPLC (percent of HPLC peak area in the sample extract) [2, 5] [%] | % AD [2, 6] [% AD] | % HPLC (percent of HPLC peak area in the sample extract) [2, 6] [%] | % of the total fecal excretion ([2]; IV dose 50 mg/kg) [%] | fecal component, % of the administered dose (% AD) ([2]; IV dose 50 mg/kg, 50 mg/kg) | % of the total fecal excretion ([2]; PO dose 100 mg/kg) [%] | fecal component, % of the administered dose (% AD) ([2]; PO dose 100 mg/kg, 100 mg/kg) | Total excretion (% AD), total (urine + feces) ([3]; IV (1C)) [% AD] | Total excretion (% AD), total (urine + feces) ([3]; PO (2C), urine data estimated) [% AD] | Total excretion (urine + feces), % of the administered dose ([3]; rat, IV dose) [%] | Total excretion (urine + feces), % of the administered dose ([3]; rat, PO dose) [%] | also measured
34.5% of Dose | 28.3% of Dose | C[C@@]1(O)[C@H](O)[C@@H](CO)O[C@H]1n1cnc2c(=O)[nH]c(N)nc21 [2′-C-methyl guanosine, 9-(2-C-methyl-β-D-ribofuranosyl)guanine, reference compound] | 16.0 | 16.0% of Dose | 25.6% of Dose | 25.6 | 16.0 | 41.0 | 25.6 | 28.1 | 41.0 | 16 % AD | 28.1 | 25.6 % AD and 26 % AD | 34.0 | 28.2 | 34.0 | 28.2 | metabolites in the incubation medium following incubation with [^14C]-2′-C-methyl guanosine ([4]; primary hepatocytes, 10 μM or 1 μM): No metabolites were observed
0.76% of Dose | 0.001% of Dose | C[C@@]1(O)[C@H](O)[C@@H](COP(=O)(O)NCc2ccccc2)O[C@H]1n1cnc2c(=O)[nH]c(N)nc21 [Compound 2, [(2R)-2-methyl-β-D-ribofuranosyl]guanine-N-benzylaminyl-5′-monophosphate] | – | – | – | – | – | – | – | – | – | – | – | – | – | – | – | – | –
1.05% of Dose | – | C[C@@]1(O)[C@H](O)[C@@H](COP(=O)(O)O)O[C@H]1n1cnc2c(=O)[nH]c(N)nc21 [Compound 5, [(2R)-2-methyl-β-D-ribofuranosyl]guanine 5′-monophosphate] | – | – | – | – | – | – | – | – | – | – | – | – | – | – | – | – | –
0.29% of Dose | 0.08% of Dose | C[C@@]1(O)[C@H](O)[C@@H](COP(=O)(O)OP(=O)(O)O)O[C@H]1n1cnc2c(=O)[nH]c(N)nc21 [Compound 6, [(2R)-2-methyl-β-D-ribofuranosyl]guanine 5′-diphosphate] | – | – | – | – | – | – | – | – | – | – | – | – | – | – | – | – | –
– | – | C[C@@]1(O)[C@H](O)[C@@H](COP(=O)(O)OP(=O)(O)OP(=O)(O)O)O[C@H]1n1cnc2c(=O)[nH]c(N)nc21 [Compound 7, [(2R)-2-methyl-β-D-ribofuranosyl]guanine 5′-triphosphate] | – | – | – | – | – | – | – | – | – | – | – | – | – | – | – | – | % of the total intracellular radioactivity ([4]; extracts of primary hepatocytes, all three species, 4-24 hours, [^14C]-Compound 1): 60-81%

SMILES | Percent of Dose, Total (urine, feces and liver) [1] | Percent of Dose, Total (urine, feces and liver) [3] | Total excretion (% AD), feces ([2]; IV (1C)) [% AD] | Percent of Dose, Feces 0-24 h ([2]; IV) | Percent of Dose, Feces 0-24 h ([2]; Oral) | Total excretion (% AD), feces ([2]; PO (2C)) [% AD] | % AD [2, 5] [% AD] | % HPLC (percent of HPLC peak area in the sample extract) [2, 5] [%] | % AD [2, 6] [% AD] | % HPLC (percent of HPLC peak area in the sample extract) [2, 6] [%] | % of the total fecal excretion ([2]; IV dose 50 mg/kg) [%] | fecal component, % of the administered dose (% AD) ([2]; IV dose 50 mg/kg, 50 mg/kg) | % of the total fecal excretion ([2]; PO dose 100 mg/kg) [%] | fecal component, % of the administered dose (% AD) ([2]; PO dose 100 mg/kg, 100 mg/kg) | Total excretion (% AD), total (urine + feces) ([3]; IV (1C)) [% AD] | Total excretion (% AD), total (urine + feces) ([3]; PO (2C), urine data estimated) [% AD] | Total excretion (urine + feces), % of the administered dose ([3]; rat, IV dose) [%] | Total excretion (urine + feces), % of the administered dose ([3]; rat, PO dose) [%] | also measured
CC(C)(CO)C(=O)SCCOP(=O)(NCc1ccccc1)OC[C@H]1O[C@@H](n2cnc3c(=O)[nH]c(N)nc32)[C@](C)(O)[C@@H]1O (mixture of isomers) [Compound 1, 3-hydroxy-2,2-dimethyl-thiopropionic acid S-(2-{[(2R,3R,4R,5R)-5-(2-amino-6-oxo-1,6-dihydro-purin-9-yl)-3,4-dihydroxy-4-methyl-tetrahydro-furan-2-ylmethoxy]-benzylamino-phosphoryloxy}-ethyl) ester] | 45.9% of Dose | 65.6% of Dose | 19.7 | 19.7% of Dose | 65.6% of Dose | 65.6 | 19.7 | 50.6 | 65.6 | 71.9 | 50.6 | 19.7 % AD and 20 % AD | 71.9 | 65.6 % AD and 66 % AD | 45.9 | 65.6 | 45.9 | 65.6 | radioactivity recovered in feces (% of dose) ([3]; rat, IV dose, 24 h): 39%; radioactivity recovered in urine (% of dose) ([3]; rat, IV dose, 24 h): 47%; Fecal Excretion (% AD) [3, 7]: 0.05 ± 0.08 % AD; Urinary + Fecal Excretion (% AD) [3, 7]: 26.0 ± 2.3 % AD; Urinary Excretion (% AD) [3, 7]: 25.9 ± 2.4 % AD; Fecal Excretion (% AD) [3, 8]: 0.13 ± 012 % AD; Urinary + Fecal Excretion (% AD) [3, 8]: 27.8 ± 4.9 % AD; Urinary Excretion (% AD) [3, 8]: 27.7 ± 4.9 % AD; Fecal Excretion (% AD) [3, 9]: 39.0 ± 4.0 % AD; Urinary + Fecal Excretion (% AD) [3, 9]: 86.0 ± 4.8 % AD; Urinary Excretion (% AD) [3, 9]: 46.9 ± 4.1 % AD; Fecal Excretion (% AD) [3, 10]: 0.001 ± 0.001 % AD; Urinary + Fecal Excretion (% AD) [3, 10]: 0.05 ± 0.06 % AD; Urinary Excretion (% AD) [3, 10]: 0.05 ± 0.06 % AD; Fecal Excretion (% AD) [3, 11]: 0.006 ± 0.005 % AD; Urinary + Fecal Excretion (% AD) [3, 11]: 0.36 ± 0.18 % AD; Urinary Excretion (% AD) [3, 11]: 0.36 ± 0.18 % AD; Fecal Excretion (% AD) [3, 12]: 91.3 ± 8.7 % AD; Urinary + Fecal Excretion (% AD) [3, 12]: 94.1 ± 8.9 % AD; Urinary Excretion (% AD) [3, 12]: 2.84 ± 0.82 % AD
